In patent US20210317090A1, “AMINO ACID DEPLETION AGENTS AS ANTIPROLIFERATIVE AGENTS” (University of Central Florida Research Foundation, Inc., priority 2018, published 2021):
Like-named read-outs stand apart in the source and are kept apart here.

Experiments:
[1] = tested on: L3.6pl human pancreatic cancer cells; experiment: Cytotoxicity dose-response (MTS) in L3.6pl cells; format: cell-based; conditions: for IC50: Homo sapiens, L3.6pl cells
Procedure: L3.6pl Studies. Compounds 9 and 10 were evaluated in the metastatic human pancreatic cancer cell line, L3.6pl. L3.6pl has a K-ras mutation, and high polyamine uptake activity.^7 A dose-response curve was obtained for each compound in L3.6pl cells to determine the 72 h L3.6pl IC50 value, described as the dose at which L3.6pl cells were 50% viable compared to the untreated control.
Regarding the biological studies performed in the following examples, it is noted that CHO K1, CHO-MG, and L3.6pl cells were grown in RPMI 1640 medium supplemented with 10% fetal bovine serum (FBS) and 1% penicillin/streptomycin. All cells were grown at 37° C. under a humidified 5% CO2 atmosphere. Aminoguanidine (1 mM used for CHO K1 and CHOMG cells and 250 μM for L3.6pl) was added to the growth medium to prevent oxidation of the compounds of the bovine serum amine oxidase enzyme that is present in calf serum. The cells used were in early to mid log phase and CHO and CHOMG were plated out at 1000 cells/well, whereas the L3.6pl cells were plated at 500 cells/well in a 96 well plate format.
This example illustrates aspects according to various embodiments pertaining to IC50 determinations and cell viability studies. Cell growth was assayed in sterile 96-well microtiter plates (Costar 3599, Corning, N.Y.). CHO K1 or CHOMG cells were plated at 1,000 cells/70 μL and L3.6pl cells at 500 cells/70 μL. The drug solutions of appropriate concentration in phosphate buffered saline (PBS) were added 10 μL per well after overnight incubation. After drug exposure (e.g., for 48 h for CHO K1 and CHO-MG and 48 h or 72 h for L3.6pl), cell growth was determined by measuring formazan formation from the 3-(4,5dimethylthiazol-2-yl)-5-(3-carboxymethoxyphenyl)-2-(4-sulfenyl)-2H tetrazolium, inner salt (MTS) using SynergyMx Biotek microplate reader for absorbance (490 nm) measurements.^27 All experiments were run in triplicate.

CHO-MG cells = experiment: Rescue by exogenous native polyamines in CHO-MG cells; format: cell-based, Chinese hamster; conditions: toxic concentration of compound 10 (results not shown)
L3.6pl cells = experiment: Analytes in supernatant of L3.6pl cells (LCMS); format: cell-based, human; conditions: 72 h
From the text: One way to affect both spermidine and spermine pools is to decrease methionine supply, which in turn would inhibit the formation of the decarboxylated S-adenosylmethionine needed to provide the aminopropyl fragment required for spermidine and spermine synthesis. Since methionine, leucine and phenylalanine all use the LAT1/SLC3A2 transporter to enter cells, it was hypothesized that 10 was inhibiting LAT-1 mediated amino acid import. To test this hypothesis, the development of various embodiments involved measuring the amino acid concentrations in the supernatants of cells incubated with compound 10 at 2 and 5 μM for 72 h.
This example illustrates aspects according to various embodiments pertaining to a 72 h experiment with Compound 10 in L3.6pl cells. Ten milliliters of a cell suspension containing L3.6pl human pancreatic cancer cells (50,000 cells/mL) and aminoguanidine ([…]) were placed in treated plastic Petri dishes (d=9 cm) and incubated overnight at 37° C. After 24 h, the cells were dosed with compound 10 at 2 μM, 5 μM, or 7 μM. (Note: Stock solutions of 10 at 2, 5, and 7 mM were dissolved in phosphate buffered saline (PBS) and were filtered through a 0.2 μm filter prior to use. The experiments were maintained with a total volume of 10.01 mL where 10 mL of the cell suspension was placed in a plastic dish and each compound or the equivalent PBS volume was added to make up the total volume 10.01 mL for each dish. For example, for the control experiment PBS (10 μL) was added to make up the total volume (10 mL+10 μL=10.01 mL). After 72 h incubation, the cells were collected first by pipetting off the supernatant containing floating dead cells from the culture dish as well as media and placing them into 15 mL tubes. The supernatant containing floating cells was centrifuged (4 min at 1,000 rpm). The cell-free supernatant (supernatant #1) was collected into a new 15 mL tube and quantified (˜8.6 mL) and was then stored frozen and was later quantified by LCMS to investigate the media composition of particular polyamine and amino acid analytes. The attached cells on the dish were washed with PBS (5 mL). The PBS wash was removed by suction and additional PBS (2 mL) was added and again suctioned off to provide twice-washed cells still adhered to the dish. Trypsin (2 mL) was then added to each dish and incubated (3-5 min) until all the cells were detached. Fresh media (8 mL) was added to quench the trypsin. The cell solutions were pipetted into separate 15 mL tubes and centrifuged (4 min at 1,000 rpm). The resulting supernatant was removed to provide a pellet. The pellet was suspended in PBS (10 mL) and was counted by a hemocytometer to provide cell counts for each experimental condition. The pellet was then centrifuged (4 min at 1,000 rpm) and the supernatant removed and the remaining pellet was quantified via protein and polyamine analysis.
This example illustrates aspects according to various embodiments pertaining to an LCMS Analysis. The respective supernatant (10 μL) was injected on a Thermo HPLC system equipped with PAL CTC plate sampler (96-well plate), Dionex Ultimate 3000 binary pump (flow rate at 0.25 mL/min), Dionex Ultimate 3000 thermostatted column compartment (temperature at 40° C.), Thermo Endura Mass Spectrometer (ESI source), using Thermo Scientific Accucore C18 (2.6 μm, 2.1×50 mm, 100 Å) column under a gradient of acetonitrile w/0.1% heptafluorobutyric acid (HFBA) in H2O w/0.1% HFBA from 2% at minute 0 to 60% at minute 5.0, to 99% at minute 6.5 held until minute 7.5 and then reduced back to 2% until minute 10 to re-equilibrate the column for the next injection. The peak area was measured and analyte amounts were calculated referring to analyte calibration curves. Analyte levels were adjusted with internal standard concentration for extraction efficiency. Peak height measurements were conducted referring to values obtained for standards of known concentrations. […]

CC(C)CCN1CCN(C(CNCc2ccccc2)CC2CCCCC2)CC1CC(C)C.Cl.Cl.Cl (centres unmarked) [Compound 10, Benzyl-{3-cyclohexyl-2-[3-isobutyl-4-(3-methyl-butyl)-piperazin-1-yl]-propyl}-amine trihydrochloride salt] was tested, and the IC50 ([1]; 48 h, read-out: 48 h IC50) was 3.48 ± 0.3 µM, the IC50 ([1]; 72 h, read-out: 72 h IC50) was 5.9 ± 0.2 µM and the “toxicity of compound alone” value ([1]; L3.6pl, second highest concentration tested (1 μM), 72 h) was “nontoxic”. For the same molecule, the “toxicity to L3.6pl cancer cells relative to CHO K1 and CHO-MG cell lines” value ([1]; from 48 h IC50 values) was “approximately three fold more toxic”, the “rescue of treated cells by native polyamines” value (CHO-MG cells) was “unable to rescue” and the “Supernatant level Acetyl spermidine” value (L3.6pl cells; 2 μM) was 1649 ± 18 pmoles/mg protein. The “Supernatant level Acetyl spermine” value (L3.6pl cells; 2 μM) was 49 ± 10 pmoles/mg protein, the “Supernatant level Agmatine” value (L3.6pl cells; 2 μM) was 297 ± 163 pmoles/mg protein and the “Supernatant level Arginine” value (L3.6pl cells; 2 μM) was 18396 ± 70 pmoles/mg protein. The “Supernatant level Glutamic acid” value (L3.6pl cells; 2 μM) was 20231 ± 649 pmoles/mg protein, the “Supernatant level Leucine” value (L3.6pl cells; 2 μM) was 15055 ± 1043 pmoles/mg protein and the “Supernatant level Methionine” value (L3.6pl cells; 2 μM) was 17686 ± 2432 pmoles/mg protein. For the same molecule, the “Supernatant level Ornithine” value (L3.6pl cells; 2 μM) was 9249 ± 306 pmoles/mg protein, the “Supernatant level Phenylalanine” value (L3.6pl cells; 2 μM) was 11954 ± 828 pmoles/mg protein and the “Supernatant level Putrescine” value (L3.6pl cells; 2 μM) was 938 ± 70 pmoles/mg protein. For the same molecule, the “Supernatant level Spermidine” value (L3.6pl cells; 2 μM) was 131 ± 26 pmoles/mg protein, the “Supernatant level Spermine” value (L3.6pl cells; 2 μM) was 2532 ± 406 pmoles/mg protein and the “Supernatant level Acetyl spermidine” value (L3.6pl cells; 5 μM) was 1706 ± 29 pmoles/mg protein. The “Supernatant level Acetyl spermine” value (L3.6pl cells; 5 μM) was 36 ± 4 pmoles/mg protein, the “Supernatant level Agmatine” value (L3.6pl cells; 5 μM) was 485 ± 176 pmoles/mg protein and the “Supernatant level Arginine” value (L3.6pl cells; 5 μM) was 43243 ± 2047 pmoles/mg protein. For the same molecule, the “Supernatant level Glutamic acid” value (L3.6pl cells; 5 μM) was 34033 ± 540 pmoles/mg protein, the “Supernatant level Leucine” value (L3.6pl cells; 5 μM) was 202092 ± 23817 pmoles/mg protein and the “Supernatant level Methionine” value (L3.6pl cells; 5 μM) was 64036 ± 5454 pmoles/mg protein. For the same molecule, the “Supernatant level Ornithine” value (L3.6pl cells; 5 μM) was 15951 ± 118 pmoles/mg protein, the “Supernatant level Phenylalanine” value (L3.6pl cells; 5 μM) was 160462 ± 18910 pmoles/mg protein and the “Supernatant level Putrescine” value (L3.6pl cells; 5 μM) was 2224 ± 98 pmoles/mg protein. The “Supernatant level Spermidine” value (L3.6pl cells; 5 μM) was 167 ± 32 pmoles/mg protein and the “Supernatant level Spermine” value (L3.6pl cells; 5 μM) was 2690 ± 889 pmoles/mg protein.
